Test results from US20080070256A1, “Non-Human Animal Models for B-cell Non-Hodgkin's Lymphoma and Uses Thereof” (NATIONAL JEWISH MEDICAL AND RESEARCH CENTER, priority 2006, published 2008).

Assays:
Raji cells [1] = assay: MTS viability assay on Raji cells; assay type: cell-based, human; conditions: increasing concentrations
Procedure: (§1) The inventors obtained a highly specific pharmacological inhibitor of Syk through a collaboration with Rigel Pharmaceuticals. […] Also tested were the effects of the Syk kinase inhibitor on primary murine BL the inventors obtained from triply transgenic mice (Example 2). In addition, the effects of R408 were tested on three cell lines derived from human BL tumors (Raji, Ramos and Daudi). […] The cells and drug were incubated at a final volume of 200 μl in each well. Each condition was set up in triplicate wells, in any one experiment. […] The plates were read with a Molecular Dynamics ELISA plate reader, at OD 490. The data presented in FIGS. 29A-29D is from one experiment, representative of three independent assays. The error bars represent the standard deviations. […] The cells were cultured for 22 hours with the compound, and pulsed for the last 2 hours with MTS reagent. The O.D.490 absorbance of the wells was determined 24 hours after the beginning of the experiment. All conditions were tested in triplicate wells. The error bars represent the standard deviations of the triplicate wells.
In order to validate the observations obtained in the mouse models of BL, the inventors tested whether the pharmacological inhibition of Syk in a human BL cell line (Raji) also results in the reduced viability of those cells. […]

[2] = system: tumors derived from Eμ-MYC mice; assay: In vivo drug candidate test, transplanted Eμ-MYC tumors (no surface BCR); design: species or system mouse; conditions: treated for 7 days, starting 21 days after transplant
Text: (§2) Cohorts of age and sex matched, syngeneic mice (C57/BL6) are given transplants of tumor cells administered by tail vein injection (inoculum ranges from 10^2-10^6 cells, but all of the mice in one cohort usually get the same dose of cells). The mice are observed daily for 14-21 days for presentation of externally evident clinical signs of hematological malignancies. These include splenomegaly and lymphadenopathy, dehydration, scruffy fur, hunched posture, labored breathing, and an ascending hind limb paralysis. When the mice are visibly sick, they begin treatment with the drug candidate. The mice are either analyzed 24 hours after the last dose of drug in order to ascertain the degree of remission caused by the drug, in an acute manner, or left in the vivarium to determine the extent of survival that is afforded by the treatment, over the normal rate of mortality for untreated, tumor-bearing mice.
In this experiment, cohorts of 10 mice each were given transplants of tumors derived from Eμ-MYC mice.

Raji cells [3] = assay: Apoptosis of Raji cells by propidium iodide stain (subdiploid population); assay type: cell-based, human; conditions: exposure in vitro
Text: In order to validate the observations obtained in the mouse models of BL, the inventors tested whether the pharmacological inhibition of Syk in a human BL cell line (Raji) also results in the reduced viability of those cells. […] Similar results are observed upon the shRNA-mediated disruption of Syk expression in Raji cells.

[4] = system: murine BL cell lines (TBL-1, TBL-8, TBL-9, TBL-14); assay: MTS viability assay, murine BL cell lines; assay type: cell-based, mouse; conditions: 24 hours
Procedure: as §1
Using this approach, four primary tumors derived from Eμ-MYC/BCR^HEL/sHEL mice have been tested, three cell lines derived from such tumors (TBL-1, TBL-8 and TBL-14), as well as a T-cell lymphoma cell line (iTLS-10). […] The cells were incubated for an MTS assay as described elsewhere herein. […]

[5] = system: tumors derived from Eμ-MYC/BCR^HEL mice; assay: In vivo drug candidate test, transplanted murine B-CLL tumors; design: species or system mouse
Text: In this experiment, cohorts of 20 mice each were given transplants of tumors derived from Eμ-MYC/BCR^HEL (resemble human B-CLL) mice. […] Part of the cohort was euthanized and evaluated for remission acutely (left set of graphs).

[6] = system: tumors derived from Eμ-MYC/BCR^HEL/sHEL mice; assay: In vivo drug candidate test, transplanted murine BL tumors; design: species or system mouse; conditions: transient 7 day treatment, starting 20 days after transplant
Text: as §2
In another experiment, depicted in FIG. 33, cohorts of 10 mice each were given transplants of tumors derived from Eμ-MYC/BCR^HEL/sHEL (resemble human BL) mice. 20 days later, when the mice presented externally evident signs of disease, they were treated for 7 days with R788. This cohort was observed over time for kinetics and time frame of mortality following transient treatment with R788.

[7] = system: MMTV-rtTA/TRE-MYC/BCR^HEL/sHEL tumors (DLBCL); conditions: mouse, in vivo
Procedure: (§3) Tumor cells were harvested from lymph nodes and spleens and transplanted. The recipient mice were held until tumors became clinically apparent. Tumor recipient (clear bars) and wild type (filled bars) mice then received daily injections of the indicated drugs for 7 days of either cyclosporine A (csa), FK506, rapamycin (rap) or cyclophosphamide (cyph). The mice were euthanized 24 hours after the last injection of drug, and lymph nodes were harvested for analysis of either total number of cells or surface markers of donor cells (not shown).
(§4) Tumor cells were harvested from lymph nodes and spleens and transplanted as described. The recipient mice were held until tumors became clinically apparent. The mice were then either maintained on a normal mouse diet, or switched on to a diet containing doxycycline, that shut off MYC overexpression. The mice were euthanized at the indicated times, and the lymph nodes were collected, used to generate single cell suspensions, cell counts and flow cytometric analysis.
(§5) Groups of 6 mice were utilized for each of the experimental protocols. Four mice bearing transplanted tumors, and two age and sex matched wild type mice were treated with the same drug and equal frequency. The transplant recipient mice were held until tumors became clinically apparent (approximately 100 days for the Eμ-MYC tumors, 58 days for the Eμ-MYC/BCR^HEL tumors, 21 days for the Eμ-MYC/BCR^HEL/sHEL tumors, and 14 days for the MMTV-rtTA/TRE-MYC/BCR^HEL/sHEL tumors). The mice then received daily injections of the indicated agents for 7 days, as applicable. Mice were either euthanized 24 hours after the last injection of drug, or held indefinitely to ascertain survival. Lymph nodes, spleens and bone marrows were collected and processed to generate single cell suspensions. The cells were counted as described above. An aliquot from the cell suspensions was stained with antibodies for B220, Thy 1.2, Mac-1, IgM^a, B7-2, and CD69, in order to determine the proportion of B-cells, T-cells and myeloid cells, as well as the activation status of the HEL-reactive B-cells. Treatments were performed with cyclosporin A (Bedford laboratories, Bedford Ohio) (2 mg/kg/day), FK506 (Prograf, Fujisawa Healthcare, Deerfield, Ill.) (2 mg/kg/day), rapamycin (Biomol, King of Prussia, Pa.) (2 mg/kg/day), and cyclophosphamide (1 mg/kg/day) (Bristol-Myers Squibb, Princeton, N.J.). The therapeutics were suspended in PBS, sterilized by filtration through a 0.22 μm membrane, and administered intravenously through the tail vein.
(§6) 10^6 cells obtained from tumor-bearing spleen or lymph nodes were transplanted into cohorts of 4-10 mice. […] The tumor bearing and control wild-type mice were then treated daily for seven days with intravenous injections of the various drugs. Mice were either euthanized 24 hours after the last injection of drug, or held indefinitely to ascertain survival. The analysis of tumor burden was performed with cells obtained from lymph nodes and spleens.

[8] = system: MMTV-rtTA/TRE-MYC/BCR^HEL/sHEL tumors (FLL); conditions: mouse, in vivo
Procedure: as §3, §4, §5, §6

[9] = system: tumors from the jaws of MMTV-rtTA/TRE-MYC/BCR^HEL/sHEL mice; conditions: daily intravenous injections for 7 days
Procedure: as §5, §6

[10] = system: Eμ-MYC/BCR^HEL/sHEL tumors
Procedure: as §5, §6

[11] = system: Eμ-MYC, Eμ-MYC/BCR^HEL/sHEL and MMTV-rtTA/TRE-MYC/BCR^HEL/sHEL jaw tumors; conditions: mouse, in vivo
Procedure: as §5

Eμ-MYC/BCR^HEL tumors = assay: Therapeutic trial on transplanted Eμ-MYC/BCR^HEL tumors (B-CLL model); assay type: in vivo, mouse; conditions: daily intravenous injections for 7 days
Procedure: as §5, with “The therapeutics were suspended in PBS, sterilized by filtration through a 0.22 μm membrane, and administered intravenously through the tail vein.” left out

[12] = daily intravenous injections for 7 days

Structure (SMILES): COc1cc(Nc2ncc(F)c(Nc3ccc4c(n3)NC(=O)C(C)(C)O4)n2)cc(OC)c1OC [R406]
- viability of Raji cells (MTS) (Raji cells [1]): dose response decrease in viability
- survival of tumor-bearing mice [2]: does not extend the survival
- apoptosis (subdiploid population, propidium iodide) (Raji cells [3]): undergo apoptosis
- cell viability (MTS) [4]: susceptible

Structure (SMILES): COc1cc(Nc2ncc(F)c(Nc3ccc4c(n3)N(COP(=O)(O)O)C(=O)C(C)(C)O4)n2)cc(OC)c1OC [R788]
- survival of tumor-bearing mice [2]: perished at the same rate and time frame as their untreated, tumor-bearing counterparts
- survival versus untreated counterparts ([5]; transient 7 day treatment): twice as long
- tumor burden (number of cells in lymph nodes and spleens) ([5]; treated for 7 days, starting 24 days after transplant): significantly decreased the tumor burden
- survival versus untreated counterparts [6]: at least twice as long

Structure (SMILES): O=P1(N(CCCl)CCCl)NCCCO1 (stereo not shown) [cyclophosphamide]
- remission [7]: brief remission
- survival compared with untreated tumor-bearing mice [7]: died more rapidly than did untreated, tumor-bearing mice
- response of transplanted MMTV-rtTA/TRE-MYC/BCR^HEL/sHEL tumors to drug ([7]; iv): responded
- remission [8]: brief remission
- survival compared with untreated tumor-bearing mice [8]: died more rapidly than did untreated, tumor-bearing mice
- response of transplanted MMTV-rtTA/TRE-MYC/BCR^HEL/sHEL tumors to drug ([8]; iv): responded
- response of transplanted MMTV-rtTA/TRE-MYC/BCR^HEL/sHEL jaw tumors to drug [9]: responded
- remission ([10]; after seven-day treatment): brief remission
- survival compared with untreated tumor-bearing mice ([10]; after seven-day treatment, observed 100 days): died more rapidly than did untreated, tumor-bearing mice
- response of transplanted Eμ-MYC/BCR^HEL/sHEL tumors to drug [10, 12]: responded
- tumor regression (Eμ-MYC tumors; [12]): tumor regression in all animals
- response of transplanted Eμ-MYC tumors to drug (tumor burden, lymph nodes and spleens) (Eμ-MYC tumors; daily intravenous injections for 7 days, analysed 24 hours after last injection): strong response
- general cytotoxicity (reduction in T-cells, myeloid cells, non-transgenic B-cells) (Eμ-MYC tumors; tumor-bearing mice, 7 days treatment): more general cytotoxicity
- general cytotoxicity (reduction in T cells, myeloid cells, non-transgenic B cells) [11]: more general cytotoxicity
- response of the transplanted tumors to drug [11]: strong response
- tumor regression [11]: tumor regression in each instance
- response of transplanted Eμ-MYC/BCR^HEL tumors to drug (Eμ-MYC/BCR^HEL tumors): responded
